According to the NIST ThermoML archive (doi:10.1016/j.tca.2012.09.009):
Numbers after ± are expanded uncertainties.

Experiment: osmotic coefficient (dimensionless); mn = molality of the nth substance listed, in mol/kg
Settings: 323.15 K, 101 kPa, Liquid, isopiestic method

CCCC[n+]1cccc(C)c1.O=S(=O)([N-]S(=O)(=O)C(F)(F)F)C(F)(F)F + CCCCO
Settings | osmotic coefficient
m1 = 0.0539 | 0.692 ± 0.015
m1 = 0.082 | 0.581 ± 0.021
m1 = 0.1023 | 0.508 ± 0.025
m1 = 0.1892 | 0.403 ± 0.03
m1 = 0.3045 | 0.305 ± 0.035
m1 = 0.4112 | 0.259 ± 0.037
m1 = 0.5115 | 0.238 ± 0.038
m1 = 0.8265 | 0.203 ± 0.04
m1 = 1.232 | 0.179 ± 0.041
m1 = 1.58 | 0.155 ± 0.042
m1 = 2.087 | 0.132 ± 0.043
m1 = 2.466 | 0.12 ± 0.044
m1 = 2.878 | 0.112 ± 0.044
m1 = 3.434 | 0.102 ± 0.045

CCCC[n+]1cccc(C)c1.O=S(=O)([N-]S(=O)(=O)C(F)(F)F)C(F)(F)F + CCC(C)O
Settings | osmotic coefficient
m1 = 0.0527 | 0.735 ± 0.013
m1 = 0.0838 | 0.623 ± 0.019
m1 = 0.1035 | 0.581 ± 0.021
m1 = 0.2136 | 0.45 ± 0.028
m1 = 0.3113 | 0.379 ± 0.031
m1 = 0.411 | 0.337 ± 0.033
m1 = 0.5068 | 0.292 ± 0.035
m1 = 0.7963 | 0.235 ± 0.038
m1 = 1.217 | 0.195 ± 0.04
m1 = 1.576 | 0.171 ± 0.041
m1 = 2.032 | 0.149 ± 0.043
m1 = 2.408 | 0.135 ± 0.043
m1 = 2.799 | 0.126 ± 0.044
m1 = 3.261 | 0.119 ± 0.044

CCC[n+]1cccc(C)c1.O=S(=O)([N-]S(=O)(=O)C(F)(F)F)C(F)(F)F + CC(C)O
Settings | osmotic coefficient
m1 = 0.0497 | 0.974 ± 0.001
m1 = 0.0805 | 0.806 ± 0.01
m1 = 0.1081 | 0.756 ± 0.012
m1 = 0.1987 | 0.632 ± 0.018
m1 = 0.2986 | 0.508 ± 0.025
m1 = 0.41 | 0.415 ± 0.029
m1 = 0.5278 | 0.379 ± 0.031
m1 = 0.8355 | 0.334 ± 0.033
m1 = 1.221 | 0.281 ± 0.036
m1 = 1.623 | 0.24 ± 0.038
m1 = 2.072 | 0.217 ± 0.039
m1 = 2.437 | 0.206 ± 0.04
m1 = 2.828 | 0.191 ± 0.04
m1 = 3.326 | 0.184 ± 0.041

CCCC[n+]1cccc(C)c1.O=S(=O)([N-]S(=O)(=O)C(F)(F)F)C(F)(F)F + CCCO
Settings | osmotic coefficient
m1 = 0.0318 | 0.917 ± 0.004
m1 = 0.0485 | 0.78 ± 0.011
m1 = 0.0788 | 0.72 ± 0.014
m1 = 0.2157 | 0.571 ± 0.021
m1 = 0.3181 | 0.487 ± 0.026
m1 = 0.417 | 0.44 ± 0.028
m1 = 0.527 | 0.389 ± 0.031
m1 = 0.8342 | 0.324 ± 0.034
m1 = 1.24 | 0.274 ± 0.036
m1 = 1.63 | 0.229 ± 0.039
m1 = 2.053 | 0.203 ± 0.04
m1 = 2.439 | 0.191 ± 0.04
m1 = 2.768 | 0.182 ± 0.041
m1 = 3.304 | 0.174 ± 0.041

CCCC[n+]1cccc(C)c1.O=S(=O)([N-]S(=O)(=O)C(F)(F)F)C(F)(F)F + CC(C)O
Settings | osmotic coefficient
m1 = 0.0504 | 0.909 ± 0.005
m1 = 0.0795 | 0.805 ± 0.01
m1 = 0.0981 | 0.729 ± 0.014
m1 = 0.2086 | 0.596 ± 0.02
m1 = 0.2979 | 0.536 ± 0.023
m1 = 0.3949 | 0.498 ± 0.025
m1 = 0.4981 | 0.454 ± 0.027
m1 = 0.7859 | 0.384 ± 0.031
m1 = 1.188 | 0.321 ± 0.034
m1 = 1.583 | 0.266 ± 0.037
m1 = 1.975 | 0.244 ± 0.038
m1 = 2.381 | 0.233 ± 0.038
m1 = 2.763 | 0.234 ± 0.038
m1 = 3.323 | 0.225 ± 0.039

CCC[n+]1cccc(C)c1.O=S(=O)([N-]S(=O)(=O)C(F)(F)F)C(F)(F)F + CCCO
Settings | osmotic coefficient
m1 = 0.0279 | 0.943 ± 0.003
m1 = 0.0456 | 0.826 ± 0.009
m1 = 0.0782 | 0.699 ± 0.015
m1 = 0.0966 | 0.651 ± 0.017
m1 = 0.2052 | 0.553 ± 0.022
m1 = 0.2936 | 0.504 ± 0.025
m1 = 0.3902 | 0.435 ± 0.028
m1 = 0.5073 | 0.363 ± 0.032
m1 = 0.8376 | 0.294 ± 0.035
m1 = 1.261 | 0.242 ± 0.038
m1 = 1.656 | 0.217 ± 0.039
m1 = 2.045 | 0.196 ± 0.04
m1 = 2.425 | 0.175 ± 0.041
m1 = 2.825 | 0.165 ± 0.042
m1 = 3.31 | 0.159 ± 0.042

CC[n+]1cccc(C)c1.O=S(=O)([N-]S(=O)(=O)C(F)(F)F)C(F)(F)F + CCCO
Settings | osmotic coefficient
m1 = 0.0291 | 0.924 ± 0.004
m1 = 0.0485 | 0.788 ± 0.011
m1 = 0.0836 | 0.704 ± 0.015
m1 = 0.104 | 0.68 ± 0.016
m1 = 0.2111 | 0.57 ± 0.022
m1 = 0.3124 | 0.496 ± 0.025
m1 = 0.4076 | 0.411 ± 0.029
m1 = 0.5148 | 0.354 ± 0.032
m1 = 0.8269 | 0.297 ± 0.035
m1 = 1.23 | 0.237 ± 0.038
m1 = 1.577 | 0.211 ± 0.039
m1 = 2.059 | 0.18 ± 0.041
m1 = 2.455 | 0.161 ± 0.042
m1 = 2.8 | 0.15 ± 0.043

CC[n+]1cccc(C)c1.O=S(=O)([N-]S(=O)(=O)C(F)(F)F)C(F)(F)F + CC(C)O
Settings | osmotic coefficient
m1 = 0.049 | 0.951 ± 0.003
m1 = 0.0748 | 0.834 ± 0.008
m1 = 0.0982 | 0.752 ± 0.012
m1 = 0.2129 | 0.605 ± 0.02
m1 = 0.3058 | 0.529 ± 0.024
m1 = 0.404 | 0.464 ± 0.027
m1 = 0.5051 | 0.428 ± 0.029
m1 = 0.8164 | 0.335 ± 0.033
m1 = 1.211 | 0.274 ± 0.036
m1 = 1.625 | 0.233 ± 0.038
m1 = 2.011 | 0.21 ± 0.04
m1 = 2.415 | 0.19 ± 0.041
m1 = 2.847 | 0.176 ± 0.041
m1 = 3.335 | 0.174 ± 0.041
